Data on 27 compounds can be found in US20160333006A1, “ARYL LACTA KINASE INHIBITORS” (Bristol-Myers Squibb Company, priority 2014, published 2016).

One experiment has as its target T1, GST-Xa-hAAK1 (Homo sapiens, UniProt Q2M2I8).
T1 construct: made in house
In words: AAK1 kinase assay. Conditions: ATP 22 μM. Format: biochemical. The method, then:
The assays were performed in U-bottom 384-well plates. […] The reactions were initiated by the combination of bacterially expressed, GST-Xa-hAAK1 with substrates and test compounds. The reactions were incubated at room temperature for 3 hours and terminated by adding 60 μl of 35 mM EDTA buffer to each sample. The reactions were analyzed on the Caliper LabChip 3000 (Caliper, Hopkinton, Mass.) by electrophoretic separation of the fluorescent substrate and phosphorylated product. […] Compounds were dissolved at 10 mM in dimethylsulfoxide (DMSO) and evaluated at eleven concentrations. IC50 values were derived by non-linear regression analysis.

Experiment [1] concerns the target T2, AAK1 (full length human) in HEK293F cells (Homo sapiens, UniProt Q2M2I8).
T2 construct: fused on or other part: HA tag (AAK1/HA in pIRES vector)
In words: HEK281 cell-based assay (phospho-mu2 Western blot in transfected HEK293F cells). Conditions: 3 hours, phospho-mu2, given as IC50 range. The method, then: On day one, cells were plated on a 10 cm dish so that they are ˜80% confluent at time oftransfection. Roughly 12 million cells were in a 10 cm dish at time of transfection. […] The DNA was comprised of a mixture (per 10 cm dish) containing 3 ug AAK1/HA/pIRES (full length human, NCBI accession no. NP_055726.2), 45 μg Flag/AP2MI/pcDNA (full length human), and 1.5 ml OPTI-MEM. The Lipofectamine 2000 is made up of a mixture (per 10 cm dish) containing 144 μl Lipofectamine 2000 and 1.5 ml OPTI-MEM. Each mixture was transferred to individual 15 ml tubes and incubated at RT for 5 minutes, and then the two mixes were combined and incubated at RT for 20 minutes. Growth media was then aspirated from each 10 cm plate and replaced with 10 ml of DMEM+10% FBS (no GPS). Finally, 3 ml DNA/Lipofectamine mix was added to each 10 cm dish and mix gently followed by incubate of plate overnight at 37° C. and 5% CO2.
On day three, compounds were diluted in 100% DMSO at 1000× final concentration, followed by 3-fold serial dilutions for a total of 5 concentrations tested. Four compounds were tested per 10 cm dish. One ul of each compound dilution was then pipetted into a deep-well, 96-well plate, followed by addition of 500 μl DMEM+0.5% FBS into each well for a 2× final concentration of each compound. Cells were resuspended in a 10 cm dish by simple pipetting (HEK293 cells come off the plate that easy at this point) and then transferred to a 50 ml conical tube and pelleted by centrifugation at 1000 rpm for 5 min. Cell pellets were then resuspended in 2.75 ml DMEM+0.5% FBS per 10 cm dish and 100 μl of cell suspension transferred into each well of 96-well TC plate. Finally, 100 μl of 2× compound diluted in DMEM+0.5% FBS was then added into wells containing cell suspension for a 1× final concentration. Plates were then incubated at 37° C. and 5% CO2 for 3 hours followed by transferring of cell suspensions from each well into 12-tube PCR strips. The PCR strips were spun in a tip rack at 1000 rpm for 5 minutes to pellet cells and media was then removed by pipetting without disturbing the cell pellet.
Five ul of 10× NuPage Sample Reducing Agent (with 50 mM DTT) was to each sample followed by heat denaturing at 70 C for 10 min on PCR machine. […] For controls, 2 ng of phospho-mu2 or 20 ng mu2/Flag proteins were loaded in the last well of each gel. After SDS-PAGE, samples on each gel were transferred to PVDF membrane using an iBlot and membranes were blocked for one hour in TBST+5% milk, followed by wash 3× for 5-10 min with TBST.
Finally, the camera was set up to take a picture every 30 seconds for 10 minutes and the best image saved for each blot with no saturated signal (when the signal is saturated, the bands will be highlighted red). A volume analysis on each band was performed to obtain density values. Percent inhibition was calculated for each sample by first normalizing to total Mu2 expression levels and then comparing to 0% and 100% controls. IC50 values were then calculated using Excel fitting software.

The structures appear in SMILES notation.

T1 sequence (Q2M2I8 whole entry): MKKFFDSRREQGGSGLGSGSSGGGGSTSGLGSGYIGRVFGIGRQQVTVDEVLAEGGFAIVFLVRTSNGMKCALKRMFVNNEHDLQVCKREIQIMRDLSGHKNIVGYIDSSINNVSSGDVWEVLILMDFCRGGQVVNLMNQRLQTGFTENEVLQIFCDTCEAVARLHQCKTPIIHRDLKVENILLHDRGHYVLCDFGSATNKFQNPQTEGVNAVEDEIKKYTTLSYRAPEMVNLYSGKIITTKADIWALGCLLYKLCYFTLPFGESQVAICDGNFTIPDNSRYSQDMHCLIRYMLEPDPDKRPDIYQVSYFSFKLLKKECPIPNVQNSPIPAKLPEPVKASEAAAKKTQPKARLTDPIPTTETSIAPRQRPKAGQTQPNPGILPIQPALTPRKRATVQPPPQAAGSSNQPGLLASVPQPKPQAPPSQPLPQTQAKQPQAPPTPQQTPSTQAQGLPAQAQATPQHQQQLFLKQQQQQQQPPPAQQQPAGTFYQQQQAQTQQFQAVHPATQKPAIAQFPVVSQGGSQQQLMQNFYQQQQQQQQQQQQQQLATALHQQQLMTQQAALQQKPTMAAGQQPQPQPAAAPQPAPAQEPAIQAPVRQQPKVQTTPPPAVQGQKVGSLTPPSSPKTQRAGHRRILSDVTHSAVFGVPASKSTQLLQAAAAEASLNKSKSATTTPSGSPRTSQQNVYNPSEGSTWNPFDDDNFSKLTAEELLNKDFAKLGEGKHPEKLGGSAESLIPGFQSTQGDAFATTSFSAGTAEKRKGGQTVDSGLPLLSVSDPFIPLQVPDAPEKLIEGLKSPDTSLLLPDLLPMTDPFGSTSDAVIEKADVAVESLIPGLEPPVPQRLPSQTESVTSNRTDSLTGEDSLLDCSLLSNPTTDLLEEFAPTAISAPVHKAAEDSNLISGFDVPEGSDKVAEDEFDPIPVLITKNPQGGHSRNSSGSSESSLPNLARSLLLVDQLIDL
T2 sequence (Q2M2I8 1-822 limits assumed): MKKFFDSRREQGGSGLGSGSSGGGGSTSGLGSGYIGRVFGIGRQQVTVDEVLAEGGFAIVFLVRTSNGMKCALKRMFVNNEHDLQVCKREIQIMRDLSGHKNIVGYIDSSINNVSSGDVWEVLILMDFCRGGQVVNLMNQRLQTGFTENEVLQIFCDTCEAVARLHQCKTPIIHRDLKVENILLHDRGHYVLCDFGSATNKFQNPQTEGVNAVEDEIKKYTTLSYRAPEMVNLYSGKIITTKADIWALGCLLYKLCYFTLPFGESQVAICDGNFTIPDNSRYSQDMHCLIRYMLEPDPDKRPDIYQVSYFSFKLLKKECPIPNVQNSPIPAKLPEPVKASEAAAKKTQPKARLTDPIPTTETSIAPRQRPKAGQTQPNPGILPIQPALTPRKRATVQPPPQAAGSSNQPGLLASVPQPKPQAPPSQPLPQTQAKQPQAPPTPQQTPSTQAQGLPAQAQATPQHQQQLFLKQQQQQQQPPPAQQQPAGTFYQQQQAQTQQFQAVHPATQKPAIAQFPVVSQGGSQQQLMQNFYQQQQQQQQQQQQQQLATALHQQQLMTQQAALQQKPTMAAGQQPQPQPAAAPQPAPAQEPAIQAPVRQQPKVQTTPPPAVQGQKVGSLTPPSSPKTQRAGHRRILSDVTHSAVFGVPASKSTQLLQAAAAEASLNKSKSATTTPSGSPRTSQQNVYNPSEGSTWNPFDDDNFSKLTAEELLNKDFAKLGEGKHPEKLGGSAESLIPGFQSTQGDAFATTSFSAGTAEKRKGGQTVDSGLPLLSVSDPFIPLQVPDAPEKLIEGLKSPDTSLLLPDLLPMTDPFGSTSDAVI

With `Cc1nccc2c1c(=O)n(C)c1cc(OCC(N)CC(F)(F)F)c(Br)cc21` (single isomer, unassigned) [Example 138, 8-(2-amino-4,4,4-trifluorobutoxy)-9-bromo-4,6-dimethylbenzo[c][2,7]naphthyridin-5(6H)-one], the IC50 (in general, the concentration that gives 50% inhibition) at GST-Xa-hAAK1 (given as IC50 range) was in the range of 0.001 to 0.01 µM; in experiment [1], 0.01 to 0.1 µM.

For `Cc1nccc2c1c(=O)n(C)c1cc(OCC(N)CC(F)(F)F)c(Br)cc21` (single isomer, unassigned) [Example 139, 8-(2-amino-4,4,4-trifluorobutoxy)-9-bromo-4,6-dimethylbenzo[c][2,7]naphthyridin-5(6H)-one], the IC50 at GST-Xa-hAAK1 (given as IC50 range) was less than 0.001 µM; in experiment [1], 0.001 to 0.01 µM.

With `Cc1nccc2c1c(=O)n(C)c1cc(OC[C@@H](N)CC(C)C)c(-c3ccccn3)cc21` [Example 86, (S)-8-((2-amino-4-methylpentyl)oxy)-4,6-dimethyl-9-(pyridin-2-yl)benzo[c][2,7]naphthyridin-5(6H)-one], the IC50 (on GST-Xa-hAAK1 (given as IC50 range); in experiment [1]) was 0.01 to 0.1 µM throughout.

Consider `CC(C)C[C@H](N)COc1cc2[nH]c(=O)c3cnccc3c2cc1Br` [Example 108, (S)-8-((2-amino-4-methylpentyl)oxy)-9-bromobenzo[c][2,7]naphthyridin-5(6H)-one], for which the IC50 (at GST-Xa-hAAK1 (given as IC50 range); in experiment [1]) was 0.001 to 0.01 µM each time.

`Cc1cc2c(cc1OC[C@@H](N)CC(C)C)[nH]c(=O)c1cnccc12` [Example 109, (S)-8-((2-amino-4-methylpentyl)oxy)-9-methylbenzo[c][2,7]naphthyridin-5(6H)-one]: the IC50 (on GST-Xa-hAAK1 (given as IC50 range); in experiment [1]) was 0.001 to 0.01 µM throughout.

`Cn1c(=O)c2cnccc2c2cc(Br)c(OCC(N)CCC(F)(F)F)cc21` (stereo not drawn) [Example 113, 8-((2-amino-5,5,5-trifluoropentyl)oxy)-9-bromo-6-methylbenzo[c][2,7]naphthyridin-5(6H)-one]: the IC50 (on GST-Xa-hAAK1 (given as IC50 range); in experiment [1]) was 0.001 to 0.01 µM in each case.

On to `Cn1c(=O)c2cnccc2c2cc(-c3cnco3)c(OCC(N)CCC(F)(F)F)cc21` (stereo not drawn) [Example 114, 8-((2-amino-5,5,5-trifluoropentyl)oxy)-6-methyl-9-(oxazol-5-yl)benzo[c][2,7]naphthyridin-5(6H)-one], for which the IC50 at GST-Xa-hAAK1 (given as IC50 range) lay in the range of 0.001 to 0.01 µM; in experiment [1], 0.01 to 0.1 µM.

As to `Cn1c(=O)c2cnccc2c2cc(Cl)c(OCC(N)CCC(F)(F)F)cc21` (stereo not drawn) [Example 115, 8-((2-amino-5,5,5-trifluoropentyl)oxy)-9-chloro-6-methylbenzo[c][2,7]naphthyridin-5(6H)-one], the IC50 (on GST-Xa-hAAK1 (given as IC50 range); in experiment [1]) was 0.001 to 0.01 µM throughout.

For `Cn1c(=O)c2cnccc2c2cc(Cl)c(OCC(N)CCC(F)(F)F)cc21` (stereo not drawn) [Example 116, 8-((2-amino-5,5,5-trifluoropentyl)oxy)-9-chloro-6-methylbenzo[c][2,7]naphthyridin-5(6H)-one], the half-maximal inhibitory concentration (IC50) (at GST-Xa-hAAK1 (given as IC50 range); in experiment [1]) was 0.01 to 0.1 µM in each case.

Take `Cn1c(=O)c2cnccc2c2cc(Cl)c(OCC(N)CCC(F)(F)F)cc21` (stereo not drawn) [Example 117, 8-((2-amino-5,5,5-trifluoropentyl)oxy)-9-chloro-6-methylbenzo[c][2,7]naphthyridin-5(6H)-one]: the half-maximal inhibitory concentration (IC50) (at GST-Xa-hAAK1 (given as IC50 range); in experiment [1]) was 0.001 to 0.01 µM throughout.

For the compound `Cn1c(=O)c2c(N)nccc2c2ccc(OCC(N)CCC(F)(F)F)cc21` (stereo not drawn) [Example 118, 4-amino-8-((2-amino-5,5,5-trifluoropentyl)oxy)-6-methylbenzo[c][2,7]naphthyridin-5(6H)-one], the IC50 on GST-Xa-hAAK1 (given as IC50 range) fell in the range of 0.001 to 0.01 µM; in experiment [1], 0.01 to 0.1 µM.

Regarding `Cn1c(=O)c2c(N)nccc2c2ccc(OCC(N)CCC(F)(F)F)cc21` (stereo not drawn) [Example 119, 4-amino-8-((2-amino-5,5,5-trifluoropentyl)oxy)-6-methylbenzo[c][2,7]naphthyridin-5(6H)-one], the IC50 in experiment [1] fell in the range of 0.001 to 0.01 µM.

Take `Cn1c(=O)c2c(N)nccc2c2ccc(OCC(N)CCC(F)(F)F)cc21` (stereo not drawn) [Example 120, 4-amino-8-((2-amino-5,5,5-trifluropentyl)oxy)-6-methylbenzo[c][2,7]naphthyridin-5(6H)-one]: in experiment [1], the IC50 fell in the range of 0.001 to 0.01 µM.

Take `CC(C)C[C@H](N)COc1cc2c(cc1C(F)F)c1ccncc1c(=O)n2C` [Example 121, (S)-8-((2-amino-4-methylpentyl)oxy)-9-(difluoromethyl)-6-methylbenzo[c][2,7]naphthyridin-5(6H)-one]: the IC50 (on GST-Xa-hAAK1 (given as IC50 range); in experiment [1]) was 0.001 to 0.01 µM each time.

In the case of `COc1ccc2c3ccnc(C)c3c(=O)n(C)c2c1` [Example 144, 8-methoxy-4,6-dimethylbenzo[c][2,7]naphthyridin-5(6H)-one], the IC50 on GST-Xa-hAAK1 (given as IC50 range) lay in the range of 0.1 to 2 µM.

For `CC(C)NCC(O)COc1ccc2c3ccncc3c(=O)n(C)c2c1` (stereo not drawn) [Example 146, 8-(2-hydroxy-3-(isopropylamino)propoxy)-6-methylbenzo[c][2,7]naphthyridin-5(6H)-one], the IC50 at GST-Xa-hAAK1 (given as IC50 range) is 0.1 to 2 µM.

Take `Cc1nccc2c1c(=O)n(C)c1cc(OCC(O)CNC(C)C)ccc21` (stereo not drawn) [Example 147, 8-(2-hydroxy-3-(isopropylamino)propoxy)-4,6-dimethylbenzo[c][2,7]naphthyridin-5(6H)-one]: the concentration for half-maximal inhibition (IC50) at GST-Xa-hAAK1 (3 hours at room temperature) was determined as 1.33 µM.

Turning to `Cc1nccc2c1c(=O)n(C)c1cc(OCC(O)CNC(C)C)c(Br)cc21` (stereo not drawn) [Example 149, 9-bromo-8-(2-hydroxy-3-(isopropylamino)propoxy)-4,6-dimethylbenzo[c][2,7]naphthyridin-5(6H)-one], the IC50 at GST-Xa-hAAK1 (given as IC50 range) lay within 0.01 to 0.1 µM.

For the compound `CC(C)CC(C)COc1ccc2c3ccncc3c(=O)n(C)c2c1` (stereo not drawn) [Example 150, 8-((2,4-dimethylpentyl)oxy)-6-methylbenzo[c][2,7]naphthyridin-5(6H)-one], the IC50 at GST-Xa-hAAK1 (given as IC50 range) was in the range of 0.01 to 0.1 µM.

In the case of `CC(C)CCCOc1ccc2c3ccncc3c(=O)n(C)c2c1` [Example 151, 6-methyl-8-((4-methylpentyl)oxy)benzo[c][2,7]naphthyridin-5(6H)-one], the half-inhibitory concentration (IC50) on GST-Xa-hAAK1 (given as IC50 range) lay in the range of 0.01 to 0.1 µM.

As for `Cc1nccc2c1c(=O)n(C)c1cc(OC[C@@H](O)CC(C)C)ccc21` [Example 152, (S)-8-((2-hydroxy-4-methylpentyl)oxy)-4,6-dimethylbenzo[c][2,7]naphthyridin-5(6H)-one], at GST-Xa-hAAK1 (given as IC50 range), the IC50 lay in the range of 0.01 to 0.1 µM.

As to `Cc1nccc2c1c(=O)n(C)c1cc(OCC(O)COC(C)C)ccc21` (stereo not drawn) [Example 153, 8-(2-hydroxy-3-isopropoxypropoxy)-4,6-dimethylbenzo[c][2,7]naphthyridin-5(6H)-one], the IC50 at GST-Xa-hAAK1 (given as IC50 range) was 0.1 to 2 µM.

Turning to `CC(C)CC(C)COc1cc2c(cc1Br)c1ccncc1c(=O)n2C` (stereo not drawn) [Example 154, 9-bromo-8-((2,4-dimethylpentyl)oxy)-6-methylbenzo[c][2,7]naphthyridin-5(6H)-one], the IC50 at GST-Xa-hAAK1 (given as IC50 range) lay in the range of 0.01 to 0.1 µM.

As to `Cc1nccc2c1c(=O)n(C)c1cc(OCC(C)CC(C)C)ccc21` (stereo not drawn) [Example 155, 8-((2,4-dimethylpentyl)oxy)-4,6-dimethylbenzo[c][2,7]naphthyridin-5(6H)-one], the IC50 at GST-Xa-hAAK1 (given as IC50 range) lay within 0.1 to 2 µM.

Turning to `Cc1nccc2c1c(=O)n(C)c1cc(OCCCC(C)C)ccc21` [Example 156, 4,6-dimethyl-8-((4-methylpentyl)oxy)benzo[c][2,7]naphthyridin-5(6H)-one], the IC50 on GST-Xa-hAAK1 (given as IC50 range) fell in the range of 0.01 to 0.1 µM.

For `CC(C)CC(C)COc1ccc2c3ccncc3c(=O)n(C)c2c1` (stereo not drawn) [Example 157, 8-((2,4-dimethylpentyl)oxy)-6-methylbenzo[c][2,7]naphthyridin-5(6H)-one], on GST-Xa-hAAK1 (given as IC50 range), the IC50 was in the range of 0.01 to 0.1 µM.

Consider `CC(C)CC(C)COc1ccc2c3ccncc3c(=O)n(C)c2c1` (stereo not drawn) [Example 158, 8-((2,4-dimethylpentyl)oxy)-6-methylbenzo[c][2,7]naphthyridin-5(6H)-one], for which the IC50 on GST-Xa-hAAK1 (given as IC50 range) was in the range of 0.01 to 0.1 µM.
